In data set [1] the target is T1, Free fatty acid receptor 1 (Homo sapiens, UniProt O14842). The experiment in a line: Agonist activity at recombinant human GPR40 expressed in HEK293 cells assessed as increase in IP1 accumulation measured after 60 mins in presence of 100% human serum by HTRF assay. The data set is classed as functional, cell-based.
Data set [2] addresses T1, Free fatty acid receptor 1. Kind of data set: Agonist activity at recombinant human GPR40 expressed in HEK293 cells assessed as increase in IP1 accumulation measured after 60 mins by HTRF assay relative to AM-1638. The data set is classed as functional, cell-based. On the technique in general: In TR-FRET formats the signal depends on donor and acceptor labels being close together.

In data set [3] the target is T1, Free fatty acid receptor 1. Kind of data set: Agonist activity at recombinant human GPR40 expressed in HEK293 cells assessed as increase in IP1 accumulation measured after 60 mins in presence of 100% human serum by HTRF assay relative to AM-1638. Format: functional, cell-based.
For data set [4], the target named is T1, Free fatty acid receptor 1. Kind of data set: Agonist activity at recombinant human GPR40 expressed in HEK293 cells assessed as increase in IP1 accumulation measured after 60 mins by HTRF assay. Format: functional, cell-based.
For a further data set, the system named is Rattus norvegicus. Kind of data set: Antidiabetic activity in Sprague-Dawley rat assessed as inhibition of blood glucose AUC at 3 mg/kg, po treated prior to dextrose challenge and measured after 20 to 60 mins by IPGTT relative to control. The data set is classed as functional. Particulars: for inhibition in vivo at 3 mg/kg: Rattus norvegicus, Sprague-Dawley, po.

Data set [5] in a line: Lipophilicity, log D of the compound at pH 7 at 100 uM by HPLC method. The data set is classed as physicochemical. Particulars: buffer.

Each structure is given as a SMILES string. Where only a bound is given, the exact number is not on record here.

T1 sequence (O14842 whole entry): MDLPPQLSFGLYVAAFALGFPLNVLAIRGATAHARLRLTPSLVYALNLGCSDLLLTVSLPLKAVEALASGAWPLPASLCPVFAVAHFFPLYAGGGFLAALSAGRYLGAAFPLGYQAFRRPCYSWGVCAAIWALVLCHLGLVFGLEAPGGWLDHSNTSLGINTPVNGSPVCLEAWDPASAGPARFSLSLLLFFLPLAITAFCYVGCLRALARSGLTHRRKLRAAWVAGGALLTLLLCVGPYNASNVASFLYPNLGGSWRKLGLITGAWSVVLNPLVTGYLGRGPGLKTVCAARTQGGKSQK

One may read the EC50 as the midpoint of the concentration-response curve. For the compound `COc1cc(-c2ccc(C3CCc4ccc([C@@H](CC(=O)O)C5CC5)cc4O3)cc2)ccn1` (mixture of isomers), the EC50 in data set [1] came to 2560 nM. Besides, the max activation in data set [2] stood at 401%; in data set [3] it was 229%.
Regarding `COc1cc(-c2ccc(C3CCc4ccc([C@H](C5CC5)[C@H](C)C(=O)O)cc4O3)cc2)ccn1` (stereo in doubt; 22), the max activation in data set [2] and in data set [3] was greater than 179% throughout.
Consider `COc1cc(-c2ccc(C3CCc4ccc([C@H](C5CC5)[C@H](C)C(=O)O)cc4O3)cc2)c(F)cn1` (stereo in doubt; 20), for which the max activation in data set [2] and in data set [3] was greater than 179% each time.
With `COc1ccc(F)c(-c2ccc(C3CCc4ccc([C@H](C5CC5)[C@H](C)C(=O)O)cc4O3)cn2)c1` (stereo in doubt; 19) [listing 1 of 2 here], the EC50 stood at 13 nM in data set [4] and 2470 nM in data set [1].
Turning to `COc1cc(-c2ccc(C3CCc4ccc([C@H](C5CC5)[C@H](C)C(=O)O)cc4O3)c(F)c2)c(F)cn1` (stereo in doubt; 26), the max activation in data set [2] and in data set [3] was greater than 179% throughout.
By logD is commonly meant the decadic logarithm of the distribution of all forms, ionised or not, between an organic phase and buffer at a given pH. `COc1cc(-c2ccc(C3CCc4ccc([C@H](C5CC5)[C@H](C)C(=O)[O-])cc4O3)cc2)c(F)cn1.[Na+]` (stereo in doubt; 20): the half-maximal effective concentration (EC50) in data set [4] was 0.9 nM; in data set [1], 66 nM. The “inhibition (INH)” value in the data set with Rattus norvegicus is given as 59%. Further, in data set [5], the pH-dependent lipophilicity (logD) at 100 µM is 2.68.
For orientation: inhibition in vivo means the drop in the measured response relative to a control, in per cent. As for `COc1ccc(F)c(-c2ccc(C3CCc4ccc([C@H](C5CC5)[C@H](C)C(=O)O)cc4O3)cc2)c1` (stereo in doubt; 15) [listing 1 of 2 here], the half-maximal effective concentration (EC50) in data set [4] was 2.6 nM; in data set [1], 127 nM. For the same compound, the inhibition in vivo at 3 mg/kg with Rattus norvegicus was found to be 102%.
For the compound `COc1ccc(F)c(-c2ccc(C3CCc4ccc([C@H](C5CC5)[C@H](C)C(=O)O)cc4O3)cn2)c1` (stereo in doubt; 18) [listing 1 of 2 here], the max activation in data set [2] and in data set [3] was greater than 179% each time.
For the compound `COc1cc(-c2ccc(C3CCc4ccc([C@H](C5CC5)[C@H](C)C(=O)O)cc4O3)nc2)ccn1` (stereo in doubt; 33) [listing 1 of 2 here], the max activation in data set [2] and in data set [3] was greater than 179% throughout.
In the case of `COc1ccc(F)c(-c2ccc(C3CCc4ccc([C@H](C5CC5)[C@H](C)C(=O)O)cc4O3)cc2)c1` (stereo in doubt; 15) [listing 2 of 2 here], the max activation in data set [2] and in data set [3] was greater than 179% throughout.
With `COc1ccc(F)c(-c2ccc(C3CCc4ccc([C@@H](CC(=O)O)C5CC5)cc4O3)cc2)c1` (mixture of isomers), the EC50 in data set [4] stood at 7 nM; in data set [1], 1230 nM. Besides, the figures for the max activation in data set [2] and in data set [3] were 359% and 188%, respectively.
As to `COc1cc(-c2ccc(C3CCc4ccc([C@H](C5CC5)[C@H](C)C(=O)[O-])cc4O3)cc2)c(F)cn1.[Na+]` (stereo in doubt; 21), the EC50 in data set [4] is less than 0.2 nM; in data set [1] it was 105 nM. Moreover, the “inhibition (INH)” value in the data set with Rattus norvegicus is 88%.
Consider `COc1cc(-c2ccc(C3CCc4ccc([C@H](C5CC5)[C@H](C)C(=O)O)cc4O3)nc2)ccn1` (stereo in doubt; 33) [listing 2 of 2 here], for which the half-maximal effective concentration (EC50) in data set [1] came to 462 nM.
Turning to `COc1ccc(F)c(-c2ccc(C3CCc4ccc([C@H](C5CC5)[C@H](C)C(=O)O)cc4O3)nc2)c1` (stereo in doubt; 17) [listing 1 of 2 here], the max activation in data set [2] and in data set [3] was greater than 179% throughout.
Regarding `COc1cc(-c2ccc(C3CCc4ccc([C@H](C5CC5)[C@H](C)C(=O)O)cc4O3)nc2)ccn1` (stereo in doubt; 32) [listing 1 of 2 here], the EC50 in data set [1] is 838 nM. Further, in data set [5], the pH-dependent lipophilicity (logD) at 100 µM worked out at 1.74.
On to `COc1cc(-c2ccc(C3CCc4ccc([C@H](C5CC5)[C@H](C)C(=O)O)cc4O3)nc2)ccn1` (stereo in doubt; 32) [listing 2 of 2 here], for which the max activation in data set [2] and in data set [3] was greater than 179% throughout.
As to `COc1cc(-c2cnc(C3CCc4ccc([C@H](C5CC5)[C@H](C)C(=O)O)cc4O3)c(F)c2)c(F)cn1` (stereo in doubt; 30) [listing 1 of 2 here], the max activation in data set [2] and in data set [3] was greater than 179% in each case.
With `COc1cc(-c2ccc(C3CCc4ccc([C@H](C5CC5)[C@H](C)C(=O)[O-])cc4O3)c(F)c2)c(F)cn1.[Na+]` (stereo in doubt; 26), the EC50 in data set [4] was less than 0.2 nM; in data set [1], 36 nM. Besides, the “inhibition (INH)” value with Rattus norvegicus amounted to 72%. For the same compound, the pH-dependent lipophilicity (logD) at 100 µM in data set [5] was determined as 2.97.
In the case of `COc1cc(-c2ccc(C3CCc4ccc([C@H](C5CC5)[C@H](C)C(=O)[O-])cc4O3)c(F)c2)c(F)cn1.[Na+]` (stereo in doubt; 27), the EC50 in data set [1] stood at 328 nM. For the same compound, the “inhibition (INH)” value in the data set on Rattus norvegicus is 38%.
Turning to `COc1cc(-c2ccc(C3CCc4ccc([C@H](C5CC5)[C@H](C)C(=O)O)cc4O3)c(F)c2)c(F)cn1` (stereo in doubt; 27), the max activation in data set [2] and in data set [3] was greater than 179% throughout.
As to `CSc1cccc(-c2ccc(C3CCc4ccc([C@@H](CC(=O)O)C5CC5)cc4O3)cc2)c1` (mixture of isomers), the half-maximal effective concentration (EC50) in data set [1] is 5170 nM. Besides, the max activation turned out to be 500% in data set [2] and 144% in data set [3].
As to `COc1ccc(F)c(-c2ccc(C3CCc4ccc([C@H](C5CC5)[C@H](C)C(=O)O)cc4O3)nc2)c1` (stereo in doubt; 17) [listing 2 of 2 here], the inhibition in vivo at 3 mg/kg in the data set on Rattus norvegicus was 100%.
Regarding `COc1cc(-c2cnc(C3CCc4ccc([C@H](C5CC5)[C@H](C)C(=O)O)cc4O3)c(F)c2)c(F)cn1` (stereo in doubt; 30) [listing 2 of 2 here], the EC50 in data set [1] stood at 382 nM. The pH-dependent lipophilicity (logD) at 100 µM in data set [5] is 2.36.
For the compound `COc1cc(-c2ccc(C3CCc4ccc([C@H](C5CC5)[C@H](C)C(=O)O)cc4O3)cc2)c(F)cn1` (stereo in doubt; 21), the max activation in data set [2] and in data set [3] was greater than 179% in each case.
As to `COc1ccc(F)c(-c2ccc(C3CCc4ccc([C@H](C5CC5)[C@H](C)C(=O)O)cc4O3)cn2)c1` (stereo in doubt; 19) [listing 2 of 2 here], the max activation in data set [2] and in data set [3] was greater than 179% each time.
As for `COc1cc(-c2ccc(C3CCc4ccc([C@H](C5CC5)[C@H](C)C(=O)O)cc4O3)cc2)ccn1` (stereo in doubt; 23), the max activation in data set [2] and in data set [3] was greater than 179% in each case.
In the case of `COc1ccc(F)c(-c2ccc(C3CCc4ccc([C@H](C5CC5)[C@H](C)C(=O)O)cc4O3)cn2)c1` (stereo in doubt; 18) [listing 2 of 2 here], the 50% effective concentration (EC50) amounted to 24 nM in data set [4] and 5330 nM in data set [1]. The compound further returned a pH-dependent lipophilicity (logD) at 100 µM in data set [5] of 2.29.
On to `COc1cc(-c2ccc(C3CCc4ccc([C@H](C5CC5)[C@H](C)C(=O)[O-])cc4O3)cc2)ccn1.[Na+]` (stereo in doubt; 22), for which the EC50 in data set [1] is 382 nM. Besides, the “inhibition (INH)” value in the data set on Rattus norvegicus amounted to 49%. This compound displayed a pH-dependent lipophilicity (logD) at 100 µM in data set [5] of 2.3.
On to `COc1cc(-c2ccc(C3CCc4ccc([C@H](C5CC5)[C@H](C)C(=O)[O-])cc4O3)cc2)ccn1.[Na+]` (stereo in doubt; 23), for which the EC50 in data set [1] came to 521 nM. Further, the “inhibition (INH)” value in the data set on Rattus norvegicus is listed as 7%.
`COc1cc(-c2cnc(C3CCc4ccc([C@H](C5CC5)[C@H](C)C(=O)O)cc4O3)c(F)c2)c(F)cn1` (stereo in doubt; 31) [listing 1 of 2 here]: the max activation in data set [2] and in data set [3] was greater than 179% each time.
As to `COc1cc(-c2ccc(C3CCc4ccc([C@H](C5CC5)[C@H](C)C(=O)[O-])cc4O3)nc2)c(F)cn1.[Na+]` (stereo in doubt; 28), the values for the EC50 in data set [4] and in data set [1] were less than 0.2 nM and 1030 nM, respectively. In addition, the “inhibition (INH)” value with Rattus norvegicus is reported as 102%. In addition, in data set [5], the logD at 100 µM was 1.98.
With `COc1cccc(-c2ccc(C3CCc4ccc([C@@H](CC(=O)O)C5CC5)cc4O3)cc2)n1` (mixture of isomers), in data set [1], the concentration for a half-maximal effect (EC50) was greater than 10000 nM. Moreover, the max activation was 535% in data set [2] and 2.4% in data set [3].
As for `COc1cc(-c2ccc(C3CCc4ccc([C@H](C5CC5)[C@H](C)C(=O)O)cc4O3)c(F)c2)ccn1` (mixture of isomers), the values for the half-maximal effective concentration (EC50) in data set [4] and in data set [1] were 8.2 nM and 920 nM, respectively. The inhibition in vivo at 3 mg/kg with Rattus norvegicus worked out at 84%. In addition, the max activation in data set [2] and in data set [3] was greater than 179% in each case.
For `O=C(O)C[C@H](c1ccc2c(c1)OC(c1ccc(-c3ccccc3)cc1)CC2)C1CC1` (single isomer, unassigned), the concentration giving a half-maximal response (EC50) in data set [4] came to 133 nM; in data set [1] it was 5440 nM. The values for the max activation in data set [2] and in data set [3] were 452% and 57%, respectively.
With `COc1cc(-c2cnc(C3CCc4ccc([C@H](C5CC5)[C@H](C)C(=O)O)cc4O3)c(F)c2)c(F)cn1` (stereo in doubt; 31) [listing 2 of 2 here], the EC50 in data set [1] turned out to be 757 nM.
Take `O=C(O)C[C@H](c1ccc2c(c1)OC(c1ccc(-c3cccc(O)c3)cc1)CC2)C1CC1` (mixture of isomers): the EC50 in data set [4] was 391 nM; in data set [1] it was 4580 nM. Also, the max activation in data set [2] was 422%; in data set [3], 231%.
In the same order, the values of `COc1cccc(-c2ccc(C3CCc4ccc([C@@H](CC(=O)O)C5CC5)cc4O3)cc2)c1` (single isomer, unassigned) are 23 nM, 4030 nM, 394% and 223%.
On to `COc1cc(-c2ccc(C3CCc4ccc([C@H](C5CC5)[C@H](C)C(=O)O)cc4O3)nc2)c(F)cn1` (stereo in doubt; 28), for which the max activation in data set [2] and in data set [3] was greater than 179% each time.
As for `COc1cc(-c2ccc(C3CCc4ccc([C@@H](CC(=O)O)C5CC5)cc4O3)cc2)c(F)cn1` (some centres undefined), the EC50 in data set [1] amounted to 1210 nM. For the same compound, the max activation in data set [2] came out at 460%; in data set [3], 224%.
For `O=C(O)C[C@H](c1ccc2c(c1)OC(c1ccc(-c3cccc(OC(F)(F)F)c3)cc1)CC2)C1CC1` (mixture of isomers), the EC50 in data set [4] stood at 934 nM; in data set [1] it was 6430 nM. The max activation in data set [2] came to 385%; in data set [3] it was 73%.

Values taken from ChEMBL document CHEMBL4145665, “Structure-Activity Relationship of Novel and Selective Biaryl-Chroman GPR40 AgoPAMs” (ACS Med Chem Lett, 2018).
